ChEMBL document CHEMBL1152005, “Design, synthesis and X-ray crystallographic studies of novel FKBP-12 ligands” (Bioorg Med Chem Lett, 1995)

What was measured:
[1] = Compound was evaluated for its ability to inhibit the rotamase activity of FKBP-12; conditions: read-out: Ki app
[2] = Compound was evaluated for its ability to inhibit the rotamase activity of FKBP-12; no inhibition

| Compound | Ki [1] [µM] | Ki app [2] |
| --- | --- | --- |
| O=C1CC2CCCC(O)(C1)C2 (stereo not given) | – | Not Active |
| O=C1CC2CCCC(Oc3cccc(O)c3)(C1)C2 (stereo not given) | 16.7 | – |
| O=C1CC2CCCC(S(=O)(=O)c3ccccc3)(C1)C2 (stereo not given) | 48.5 | – |
| Cc1cccc(C)c1OC12CCCC(CC(=O)C1)C2 (stereo not given) | 461 | – |
| COc1cccc(OC23CCCC(CC(=O)C2)C3)c1 (stereo not given) | 92.1 | – |

More lines, now with the values ahead:

| Ki [1] [µM] | Ki app [2] | Compound |
| --- | --- | --- |
| 116 | – | O=C1CC2CCCC(Oc3ccccc3)(C1)C2 (stereo not given) |
| 120 | – | Cc1ccccc1OC12CCCC(CC(=O)C1)C2 (stereo not given) |
| 85.8 | – | O=C1CC2CCCC(OCc3ccccc3)(C1)C2 (stereo not given) |
| 165 | – | CN(c1ccccc1)C12CCCC(CC(=O)C1)C2 (stereo not given) |
| 9.2 | – | O=C1CC2CCCC(Sc3ccccc3)(C1)C2 (stereo not given) |
